3 molecules from ChEMBL document CHEMBL1127128, “CGS 27830, a potent nonpeptide endothelin receptor antagonist” (Bioorg Med Chem Lett, 1993) can be followed below.

Some results are limits rather than exact numbers.

In data set [1] the target is T1, Endothelin receptor type B (Rattus norvegicus, UniProt P21451).
T1 sequence (P21451 whole entry): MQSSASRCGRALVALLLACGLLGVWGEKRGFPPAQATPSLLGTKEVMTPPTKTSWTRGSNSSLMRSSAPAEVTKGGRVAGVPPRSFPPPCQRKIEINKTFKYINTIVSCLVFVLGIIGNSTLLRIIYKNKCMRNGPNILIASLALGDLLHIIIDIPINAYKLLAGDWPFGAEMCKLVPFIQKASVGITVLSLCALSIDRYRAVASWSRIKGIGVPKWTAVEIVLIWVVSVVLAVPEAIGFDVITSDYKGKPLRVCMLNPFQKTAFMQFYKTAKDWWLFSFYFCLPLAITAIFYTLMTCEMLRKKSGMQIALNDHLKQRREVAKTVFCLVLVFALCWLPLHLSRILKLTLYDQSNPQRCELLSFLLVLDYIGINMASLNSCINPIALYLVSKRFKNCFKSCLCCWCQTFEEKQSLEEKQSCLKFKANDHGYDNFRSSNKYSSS
Put plainly: Tested for its inhibitory activity against Endothelin B receptor.

The target of data set [2] is T2, Endothelin-1 receptor (Sus scrofa, UniProt Q29010).
T2 sequence (Q29010 whole entry): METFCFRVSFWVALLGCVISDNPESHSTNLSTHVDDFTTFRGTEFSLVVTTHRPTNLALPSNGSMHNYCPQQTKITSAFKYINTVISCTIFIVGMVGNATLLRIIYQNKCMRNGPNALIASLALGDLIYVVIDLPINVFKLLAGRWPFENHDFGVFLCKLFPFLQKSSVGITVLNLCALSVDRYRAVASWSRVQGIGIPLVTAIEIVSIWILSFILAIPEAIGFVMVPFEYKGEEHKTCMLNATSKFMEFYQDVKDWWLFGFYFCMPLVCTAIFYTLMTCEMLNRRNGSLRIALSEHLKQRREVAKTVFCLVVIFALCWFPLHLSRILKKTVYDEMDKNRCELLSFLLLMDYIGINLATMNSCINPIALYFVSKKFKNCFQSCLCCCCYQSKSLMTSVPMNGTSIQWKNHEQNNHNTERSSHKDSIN
Put plainly: Tested for its inhibitory activity against Endothelin A receptor.

Data set [3] addresses T1, Endothelin receptor type B. Put plainly: Tested for its inhibitory activity against Endothelin B receptor; Compound was inactive.
Data set [4] has as its target T2, Endothelin-1 receptor. Put plainly: Tested for its inhibitory activity against Endothelin A receptor; inactive.
Data set [5] is filed under the species Oryctolagus cuniculus. Put plainly: Tested for inhibition of ET-1 induced contractile response in isolated rabbit aorta at the concentration of 10 uM. Type of data set: functional.
The nature of data set [6]: Tested for inhibition of ET-1 induced phosphoinositide (PI) turnover in A7r5 smooth muscle cells. The note with it: Rattus norvegicus. Type of data set: functional, cell-based.
The test system of data set [7] is Rattus norvegicus. Put plainly: Tested for the dose at which pressor response abolished by intravenous administration. The class given is functional.
The species named for data set [8] is Oryctolagus cuniculus. Put plainly: Tested for inhibition of ET-1 induced contractile response in isolated rabbit aorta at the concentration of 1 uM. Type of data set: functional.
The species entered for data set [9] is Oryctolagus cuniculus. Put plainly: Tested for inhibition of ET-1 induced contractile response in isolated rabbit aorta at the concentration of 0.1 uM. The class given is functional.
Data set [10] addresses Voltage-gated L-type calcium channel (Rattus norvegicus, UniProt P22002+Q02485+P27732). Put plainly: Inhibition of [3H]PN-200-110 binding to L-type calcium channels in rat cortex membranes. The class given is cell membranes, Membrane.
For data set [11], the system named is Rattus norvegicus. Put plainly: Tested for the dose at which depressor response attenuated by intravenous administration in conscious rat. Type of data set: functional.
Data set [12] concerns the target T2, Endothelin-1 receptor. Put plainly: Tested for its ability to inhibit the binding of [125I]ET1 to the Endothelin A receptor in porcine thoracic aorta membranes. Type of data set: cell membranes.
A short description of data set [13]: The half-life period was reported. Type of data set: ADME.
The target in data set [14] is T1, Endothelin receptor type B. Put plainly: Tested for its ability to inhibit the binding of [125I]ET1 to the Endothelin B receptor in rat cerebellum membranes. Type of data set: cell membranes, Membrane.

In general, IC50 refers to the midpoint of a concentration-inhibition curve. For the molecule `COC(=O)C1=C(C)N=C(C)/C(=C(/O)OC(=O)C2=C(C)N=C(C)/C(=C(/O)OC)[C@@H]2c2cccc([N+](=O)[O-])c2)[C@H]1c1cccc([N+](=O)[O-])c1`, the IC50 stood at 2700 nM in data set [1] and 422 nM at Endothelin-1 receptor [2].

For the molecule `COC(=O)C1=C(C)N=C(C)/C(=C(/O)OC(=O)C2=C(C)N=C(C)/C(=C(/O)OC)[C@H]2c2cccc([N+](=O)[O-])c2)[C@@H]1c1cccc([N+](=O)[O-])c1`, the IC50 result (in [3]; against Endothelin-1 receptor [4]) was “Not Active” throughout.

As a reminder, the inhibition is the share of the control response that was lost under treatment. Broadly, the EC50 is the concentration needed to bring the measured effect to its halfway point. Low values mean higher potency in that assay, high ones lower potency in that assay. One may read the half-life as how long it takes for the measured level to halve. With `COC(=O)C1=C(C)N=C(C)/C(=C(/O)OC(=O)C2=C(C)N=C(C)/C(=C(/O)OC)[C@@H]2c2cccc([N+](=O)[O-])c2)[C@@H]1c1cccc([N+](=O)[O-])c1`, the inhibition at 10 µM in the data set filed under Oryctolagus cuniculus [5] worked out at 77%. This molecule also came in with an EC50 in data set [6] of 143 nM. Also, the Dose came out at 10 mg/kg in the data set with Rattus norvegicus [7] and 0.25 nM/kg in the data set with Rattus norvegicus [11]. This molecule displayed an inhibition at 1 µM in the data set listed under Oryctolagus cuniculus [8] of 42%. For the same molecule, the inhibition at 0.1 µM in the data set listed under Oryctolagus cuniculus [9] was determined as 33%. For the same molecule, the IC50 worked out at 592 nM in data set [10], 15.9 nM at Endothelin-1 receptor [12] and 295 nM in data set [14]. The molecule further gave a half-life in data set [13] of less than 1 h.
